These results are taken from patent publication US6379670B1, “Methods for treatment of multiple sclerosis using peptide analogs of human myelin basic protein” (Neurocrine Biosciences, Inc., priority 1994, dated 2002).

Several values for one entry are separate records, joined by “and”; a condition that tells them apart may be missing. Identical values can stand only once. Entries after “also recorded” stand apart in the source; their conditions may differ. Non-standard residues stand in square brackets, D forms with d. No end group written: not given here.

In assay [1] the test system is peripheral blood cells of MS patients. Put plainly: Frequency of APL-responsive peripheral blood T cells after dosing of MS patients (split-well). In kind it is in vivo, human. The procedure: Patients received either 10 or 20 mg of APL NBI-5788 (weekly for four weeks). Peripheral blood cells were collected from four patients approximately one year after dosing, as well as from 14 MS patients who had not received the APL and from two normal, healthy volunteers. The frequency of response to the peptide was determined using the split-well technique. Cells were seeded in 48 wells/plate, as well as 12 control wells without antigenic stimulation, at a density of 1×10^5 cells/well. Cells were set up in IMDM+10% human plasma pool+penicillin/streptomycin 100 U/ml+gentamycin 50 μg/ml +2 mM L-glutamine (or complete media, CM). Peptide antigen (25 μg) was added and then included for no more than one feeding with media. At day 12, the medium was changed to CM without IL-2. Two days later, the split-wells were established. The wells were resuspended with a multichannel pipetor, 100 μl of the cell suspension was transferred to adjacent wells on a new plate (daughter plate) and mixed with 100 μl of media containing 1×10^5 antigen presenting cells (peripheral blood lymphocytes, PBL irradiated with 3000 R in CM with or without antigen; 25 μg/ml). After 48 hours of culturing, 100 μl of supernatant was removed from the daughter plate for later cytokine determination and stored at -70° C.
For the proliferation assay, ^3H-thymidine (0.5 μCi) was added to the daughter plate and the plates reincubated for an additional 8 hours. The wells were then harvested onto filter mats and the level of ^3H-thymidine incorporation determined using beta scintillation. Counts greater than three-fold over background were considered positive.

Assay [2] concerns Dr2a restricted human T cell clone reactive to MBP. Put plainly: Human T cell proliferation, Dr2a restricted clone. Format: cell-based. The protocol:
Human T cells reactive to MBP (83-99) may alternatively be used to measure the ability of the peptide analog to inhibit proliferation of T cells induced by native MBP (83-99) peptide. MBP-specific T cells may be obtained as previously described by Martin et al., J. Immunol. 148:1359-1366, 1992. Briefly, T cell lines are established by culture of human T cells with irradiated, DR-matched peripheral blood cells in MEM supplemented with 2 mM L-glutamine, 50 μg/ml gentamicin, penicillin and streptomycin, 100 U/ml rIL-2, and 10% human AB negative serum. Proliferation of these T cell lines is stimulated by culturing a clone with varying concentration (1.1-30 μM) of native […] peptide, 50 μM of the peptide analog or SWM peptide, in the presence of irradiated, DR matched peripheral blood cells, following incubation for approximately 60 hours, the cells are pulsed with ^3H-thymidine for 12 hours and harvested. The amount of incorporated ^3H-thymidine is measured.
The ability of the peptide analogs NBI-5719, 5748, 5765, 5788 and 5789 (SEQ ID NOs: 4-8 respectively) to affect human T cell proliferation was assessed. […] The amount of tritiated thymidine incorporated was measured, and the data represented as the mean plus or minus the standard error of the mean of replicate samples.
The potency of NBI-5788 (SEQ ID NO:7) was then determined by varying concentrations of the APL. […]

Assay [3] has as its system peripheral blood T cells of MS patients. Put plainly: Frequency of antigen-reactive peripheral blood T cells after NBI-5788 treatment of MS patients (split-well). Format: in vivo, human. The protocol: MS patients studied were those participating in phase I clinical trials using NBI-5788 administered subcutaneously (5, 10 or 20 mg) weekly for four weeks. Patients had MRI evaluations performed at baseline and at 6 and 12 weeks. All but 1 patient had secondary or primary progressive disease (SP or PP, respectively). For patients in group A, immunologic evaluations involving use of NBI-5788 as antigen could be performed only 9 months after completion of the treatment phase of the study. For patients in group B, immunologic evaluation was performed just prior to entry into the study (pre-treatment) and after 3 months following completion of the 1 month treatment phase. Two additional patients with SP MS, one with relapsing remitting (RR) MS and 3 normal controls were also studied.
Immune response to the peptide analog was assessed by measuring the frequency of proliferating peripheral blood T cells using a split-well microtiter method (i.e., number of positive wells {Δ cpm >1000, stimulation index>3} divided by the total number of wells assayed). Peripheral blood mononuclear cells (PBMC) were isolated from venous blood by Ficoll-Hypaque density gradient centrifugation, washed twice and resuspended in complete tissue culture medium (Iscove's modification of Dulbecco's medium containing 10% heat-inactivated, pooled, human A-B serum, 2 mM L-glutamine, 100 U/ml penicillin/streptomycin and 50 μg/ml gentamycin). PBMC from each patient were seeded at 10^5/well in 96 well, U-bottom microtiter plates containing 25 μg/ml whole MBP, 10 μg/ml NBI-5788 or medium alone in a volume of 200 μl. Three days later supernatants were collected and frozen at −80° C. and fresh medium containing IL-2 (10 U/ml) was added. IL-2-containg medium was refreshed on Day 7 and Day 11. On Day 14, the frequency of antigen response was determined by the “split well” technique. Briefly, cells from one primary well were split into replicate experimental wells in the presence of 10^5 freshly isolated autologous, irradiated peripheral blood mononuclear cells (APCs): one containing the original antigen (25 μg/ml) and one without antigen. Two days later supernatants were collected and the wells pulsed with 1 µCi/well [^3H]-thymidine ([…]) for the final 18 hours of culture. ^3H-Thymidine uptake was measured in a beta counter. […] The association between T cell frequency and NBI-5788 treatment was evaluated by χ^2 contingency analysis.

Take “MBP(83-99) (83E>a, 84N>K, 89F>L, and 91K>A) ([dA]KPVVHLFANIVTPRTP) [NBI-5788]”: the “Percent Reactivity (frequency of APL NBI-5788-reactive T cells)” value in assay [1] (10 mg (n = 1)) came to 23%. In addition, the “frequency of APL responsive wells (SI>3), individual patient” value in assay [1] (10 mg weekly for four weeks, about one year after dosing) is given as 23%. Further, the “Percent Reactivity (frequency of APL NBI-5788-reactive T cells)” value in assay [1] (20 mg (n = 3)) stood at 39 ± 18%. The “frequency of APL responsive wells (SI>3), individual patients” value in assay [1] (20 mg weekly for four weeks, about one year after dosing, listed as APL) was 11% and 32% and 72%. In assay [1] (human, in vivo), the “APL specific lines from treated patients cross reacting with native MBP (83-99)” value is 6/31 and the “APL specific lines from treated patients reacting with whole MBP” value is 4/31. For the same substance, in assay [2] (50 μM peptide, MBP(83-99) 1.1-30 μM, FIGS. 13 and 14), the “inhibition of proliferative response of Dr2a restricted T cell clone to MBP(83-99)” value is on record as “inhibited the ability of a human Dr2a restricted T cell clone to respond”. Further, the “inhibition of response of Dr2a T cell line to MBP(83-99), potency” value in assay [2] (APL 2, 10 or 50 μM, effect at both 10 and 50 μM, SWM 50 μM, FIG. 15) was “significantly altered the ability of the Dr2a T cell line to respond to MBP(83-99)”. Further, the “mean frequency of NBI-5788-reactive T cells after treatment” value in assay [3] (5, 10 or 20 mg, four times weekly, seven MS patients) was 35.8±12.8%. In addition, in assay [3] (after treatment with NBI-5788 (n=7)), the “mean frequency of MBP-reactive T cells after treatment” value was found to be 16.4±5.7%. Further, the “change of frequency of MBP-reactive T cells following administration” value in assay [3] (human, in vivo) is given as “does not change markedly”. Moreover, in assay [3] (human, in vivo, sc), the “change of NBI-5788-reactive T cells in peripheral blood after subcutaneous administration versus untreated MS patients” value is reported as “significant (χ^2=82.7, p<0.001) increase; also recorded: strongly induced”.
